Assay: in vitro
Conditions: human

With `Nc1nc2[nH]cc(CCc3ccc(C(=O)N[C@@H](CCC(=O)O)C(=O)O)cc3)c2c(=O)[nH]1` [pemetrexed] the CC50 was ≥ 74 µg/mL.
